As usually defined, the EC50 is the midpoint of the concentration-response curve. The CC50 is the concentration at which the toxic effect on the cells reaches its halfway point.

Experiment [1] in a line: Effective concentration required to achieve 50% protection of MT-4 cells against the cytopathic effect of HIV-1 virus. It counts as functional, cell-based. The settings on record: Human immunodeficiency virus 1, MT4. In general terms: Protection from cytopathic effect is a common read-out in antiviral testing.
Experiment [2] deals with MT4. The experiment is described as follows: Cytotoxic concentration required to reduce the viability of mock-infected MT-4 cells by 50%. It counts as functional. The settings on record: Homo sapiens.
The species entered for experiment [3] is Mus musculus. The experiment is described as follows: Reduced IL-3 dependent colony formation in murine bone marrow progenitor cells at 0.05 uM. The class given is functional.
The species entered for experiment [4] is Mus musculus. The experiment is described as follows: Reduced IL-3 dependent colony formation in murine bone marrow progenitor cells at 5 uM. The class given is functional.
For experiment [5], the system named is MT4. The experiment is described as follows: The cytotoxic concentration of compound required to reduce the viability of mock-infected MT-4 cells by 50% on HIV-1 virus LAV-2ROD strain. The class given is functional. The settings on record: Homo sapiens.
Experiment [6] relates to MT4. The experiment is described as follows: The cytotoxic concentration of compound required to reduce the viability of mock-infected MT-4 cells by 50% on HIV-1 virus A012D strain. The class given is functional. The settings on record: Homo sapiens.
The species entered for experiment [7] is Homo sapiens. The experiment is described as follows: The cytotoxic concentration of compound required to reduce the viability of mock-infected PBL cells by 50% on HIV-1 virus HTLV-IIIB strain. It counts as functional.
For experiment [8], the species on record is Mus musculus. The experiment is described as follows: Reduced IL-3 dependent colony formation in murine bone marrow progenitor cells at 0.5 uM. It counts as functional.
The species named for experiment [9] is Mus musculus. The experiment can be described thus: Reduced GM-CSF dependent colony formation in murine bone marrow progenitor cells at 0.5 uM. It counts as functional.
Experiment [10] is filed under the species Homo sapiens. The experiment is described as follows: The effective concentration required to achieve 50% protection of human peripheral blood lymphocytes against the cytopathic effect of HIV-1 virus HTLV-IIIB strain. It counts as functional, organism-based.
The species entered for experiment [11] is Mus musculus. The experiment can be described thus: Reduced GM-CSF dependent colony formation in murine bone marrow progenitor cells at 0.05 uM. It counts as functional.
In experiment [12] the test system is MT4. The experiment can be described thus: The effective concentration required to achieve 50% protection of MT-4 cells against the cytopathic effect of HIV-1 virus A012D strain. It counts as functional, cell-based. The settings on record: Homo sapiens.
Experiment [13] is filed under the species Mus musculus. The experiment is described as follows: Reduced GM-CSF dependent colony formation in murine bone marrow progenitor cells at 50 uM. It counts as functional.
The species named for experiment [14] is Mus musculus. The experiment is described as follows: Reduced IL-3 dependent colony formation in murine bone marrow progenitor cells at 50 uM. It counts as functional.
The species entered for experiment [15] is Mus musculus. The experiment is described as follows: Reduced GM-CSF dependent colony formation in murine bone marrow progenitor cells at 5 uM. The class given is functional.
The test system of experiment [16] is MT4. The experiment is described as follows: The effective concentration required to achieve 50% protection of MT-4 cells against the cytopathic effect of HIV-2 virus LAV-2ROD. It counts as functional, cell-based. The settings on record: Homo sapiens.
Experiment [17] is filed under the species Mus musculus. The experiment can be described thus: Reduced IL-3 dependent colony formation in murine bone marrow progenitor cells at 5uM. The class given is functional.
Experiment [18] is filed under the species Mus musculus. The experiment is described as follows: Reduced GM-CSF dependent colony formation in murine bone marrow progenitor cells at 5uM. The class given is functional.

SMILES strings stand for the structures.

In [1], `Cc1c(CCc2ccccc2)n(COCCO)c(=O)[nH]c1=O` came in with an EC50 of more than 444 µM. This molecule came in with a CC50 with MT4 [2] of 444 µM.
`CCOCn1c(Cc2cc(C)cc(C)c2)c(CC)c(=O)[nH]c1=O` displayed a 50% effective concentration (EC50) in experiment [1] of 0.0016 µM. In the experiment with MT4 [2], this molecule had a 50% cytotoxic concentration (CC50) of 207 µM.
With `CCOCn1c(Cc2cc(C)cc(C)c2)c(C(C)C)c(=O)[nH]c1=O`, the 50% effective concentration (EC50) in [1] came out at 0.0006 µM. In addition, in the experiment with MT4 [2], the 50% cytotoxic concentration (CC50) is 43 µM.
Taken in the same sequence, the figures for `CCCCn1c(Cc2ccccc2)c(CC)c(=O)[nH]c1=O` were 0.21 µM and more than 500 µM.
In turn, `COCCn1c(Cc2ccccc2)c(C(C)C)c(=O)[nH]c1=O` showed a 50% effective concentration (EC50) in [1] of 0.052 µM. In addition, the midpoint of cytotoxicity with MT4 [2], the CC50, lay at 195 µM.
`Cc1c(Cc2ccccc2)n(COCCO)c(=O)[nH]c1=O` had a concentration for a half-maximal effect (EC50) in [1] of 23 µM.
In experiment [1], `CCc1c(Cc2ccccc2)n(CCOC)c(=O)[nH]c1=O` gave an EC50 of 0.25 µM. For the same molecule, the cytotoxic concentration (CC50) in the experiment with MT4 [2] is 362 µM.
Molecule `CCOCn1c(Cc2ccccc2)c(CC)c(=O)[nH]c1=O` displayed an EC50 in experiment [1] of 0.041 µM. The molecule also registered a CC50 in the experiment with MT4 [2] of 245 µM.
The like results for `CCCCn1c(Cc2ccccc2)c(C(C)C)c(=O)[nH]c1=O` were, in that order, 0.042 µM and 58 µM.
The like results for `CC(C)c1c(Cc2ccccc2)n(COCCO)c(=O)[nH]c1=O` were, in that order, 0.063 µM and 295 µM.
Taken in the same sequence, the figures for `Cc1cc(C)cc(Cc2c(C(C)C)c(=O)[nH]c(=O)n2COCCO)c1` were 0.0027 µM and 221 µM.
As for `Cc1c(-c2ccccc2)n(COCCO)c(=O)[nH]c1=O`, the EC50 in [1] is more than 166 µM. The CC50 in the experiment with MT4 [2] was determined as 166 µM.
Regarding `CCc1c(Cc2cc(C)cc(C)c2)n(COCCO)c(=O)[nH]c1=O`, the 50% effective concentration (EC50) in experiment [1] was 0.013 µM. Further, the midpoint of cytotoxicity in the experiment with MT4 [2], the CC50, lay at 281 µM.
Taken in the same sequence, the figures for `CCc1c(Cc2ccccc2)n(COCCO)c(=O)[nH]c1=O` were 0.35 µM and 391 µM.
Consider `CCOCn1c(Cc2ccccc2)c(C(C)C)c(=O)[nH]c1=O` [EMIVIRINE], for which the Colony_count in the experiment listed under Mus musculus [3] came to 136; in the experiment filed under Mus musculus [4] it was 137; in the experiment listed under Mus musculus [8], 137; in the experiment listed under Mus musculus [9], 75; in the experiment listed under Mus musculus [11] it was 89; in the experiment filed under Mus musculus [13] it was 57. The Colony_count is reported as 109 in the experiment filed under Mus musculus [14] and 77 in the experiment listed under Mus musculus [15]. Moreover, the cytotoxic concentration (CC50) in the experiment with MT4 [5] is 102 µM; in the experiment with MT4 [6], 102 µM; in the experiment listed under Homo sapiens [7], 90 µM; in the experiment on MT4 [2], 186 µM. Besides, the EC50 is 0.0042 µM in experiment [1], 0.004 µM in the experiment listed under Homo sapiens [10], 0.003 µM with MT4 [12] and more than 102 µM with MT4 [16].
The molecule `Cc1c(Sc2ccccc2)n(COCCO)c(=O)[nH]c1=O` [HEPT] returned an EC50 in [1] of 7 µM. Further, in the experiment with MT4 [2], it took 740 µM to reach half-maximal cytotoxicity (CC50).
For `Cc1cn([C@H]2C[C@H](N=[N+]=[N-])[C@@H](CO)O2)c(=O)[nH]c1=O` [ZIDOVUDINE], the Colony_count in the experiment listed under Mus musculus [3] turned out to be 141; in the experiment listed under Mus musculus [17] it was 74; in the experiment listed under Mus musculus [8], 109; in the experiment listed under Mus musculus [9], 70; in the experiment listed under Mus musculus [11] it was 85; in the experiment filed under Mus musculus [18] it was 47. The values for the Colony_count in the experiment listed under Mus musculus [13] and in the experiment filed under Mus musculus [14] were 14 and 10, respectively. Besides, the CC50 in the experiment with MT4 [5] came to 7.8 µM; in the experiment with MT4 [6] it was 7.8 µM; in the experiment listed under Homo sapiens [7], 12 µM; in the experiment on MT4 [2], 7.8 µM. For the same molecule, the EC50 is 0.003 µM in experiment [1], 0.002 µM in the experiment listed under Homo sapiens [10] and 0.3 µM in the experiment on MT4 [12].

The values are drawn from ChEMBL document CHEMBL1128585, “Synthesis and antiviral activity of 6-benzyl analogs of 1-[(2-hydroxyethoxy)methyl]-6-(phenylthio)thymine (HEPT) as potent and selective anti-HIV-1 agents” (J Med Chem, 1995).
